# Reference: US9469674B2 (HAINAN UNIVERSITY, dated 2016)
# Where “and” joins values, the source holds several entries; their conditions need not be identical. Equal entries are not always repeated. Entries after “also recorded” stand apart in the source; their conditions may differ. Where two headings read alike, the source gives them in different places. Where no end group is shown, it is not given here.
# Experiments:
# α3β2[T59K] nAChR mutant = α3β2[T59K] nAChR mutant (Rattus norvegicus, UniProt P04757+P12390, T83K); assay type: cell-based
# Sequence of α3β2[T59K] nAChR mutant (P04757 26-499 limits assumed, stated change not applied): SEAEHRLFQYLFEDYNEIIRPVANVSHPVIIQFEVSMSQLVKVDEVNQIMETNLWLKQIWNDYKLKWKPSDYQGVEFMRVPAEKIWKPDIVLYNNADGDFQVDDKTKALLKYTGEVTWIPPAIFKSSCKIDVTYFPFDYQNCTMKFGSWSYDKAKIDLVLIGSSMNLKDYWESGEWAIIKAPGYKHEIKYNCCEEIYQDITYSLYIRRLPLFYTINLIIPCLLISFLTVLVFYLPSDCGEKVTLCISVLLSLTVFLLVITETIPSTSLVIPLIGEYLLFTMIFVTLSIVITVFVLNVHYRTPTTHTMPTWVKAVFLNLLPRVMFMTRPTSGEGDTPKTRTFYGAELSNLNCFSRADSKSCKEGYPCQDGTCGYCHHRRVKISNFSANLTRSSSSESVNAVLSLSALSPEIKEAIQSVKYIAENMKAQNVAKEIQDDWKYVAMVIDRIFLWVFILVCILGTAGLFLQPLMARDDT
# Sequence of α3β2[T59K] nAChR mutant (P12390 25-500 T83K limits assumed, stated change not applied): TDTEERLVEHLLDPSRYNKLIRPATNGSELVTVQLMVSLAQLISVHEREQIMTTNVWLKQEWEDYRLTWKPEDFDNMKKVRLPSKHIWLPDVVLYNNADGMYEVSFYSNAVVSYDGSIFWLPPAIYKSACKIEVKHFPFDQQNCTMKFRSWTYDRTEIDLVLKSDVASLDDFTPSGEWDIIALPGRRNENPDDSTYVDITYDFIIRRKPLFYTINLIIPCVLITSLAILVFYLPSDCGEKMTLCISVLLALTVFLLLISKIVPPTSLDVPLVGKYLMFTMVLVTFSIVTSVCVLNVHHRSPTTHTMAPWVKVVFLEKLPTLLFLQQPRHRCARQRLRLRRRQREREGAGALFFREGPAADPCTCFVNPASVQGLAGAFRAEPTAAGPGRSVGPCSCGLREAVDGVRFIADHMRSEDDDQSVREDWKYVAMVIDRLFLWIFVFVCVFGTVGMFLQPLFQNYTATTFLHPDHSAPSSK
# α6/α3β4 nAChR = α6/α3β4 nAChR (Rattus norvegicus, UniProt P04757+P12392+P43143); assay: cell-based; assay type: cell-based
# [1] = test system: Chronic Constriction Injury model of ischiadic nerve (neuralgia); conditions: rat, in vivo
# α3β2[T59I] nAChR mutant = α3β2[T59I] nAChR mutant (Rattus norvegicus, UniProt P04757+P12390, T83I); assay type: cell-based
# Sequence of α3β2[T59I] nAChR mutant (P04757 26-499 limits assumed, stated change not applied): as the sequence (P04757 26-499 limits assumed, stated change not applied) above
# Sequence of α3β2[T59I] nAChR mutant (P12390 25-500 T83I limits assumed, stated change not applied): as the sequence (P12390 25-500 T83K limits assumed, stated change not applied) above, with K59I counted along it
# [2] = test system: hot-plate pain threshold in Kunming mice; conditions: mouse, in vivo
# human α6/α3β2β3 nAChR = human α6/α3β2β3 nAChR (Homo sapiens, UniProt P17787+P32297+Q15825); assay: cell-based; assay type: cell-based
# α2β2 nAChR = α2β2 nAChR (Rattus norvegicus, UniProt P12389+P12390); assay: cell-based; assay type: cell-based
# α4β4 nAChR = α4β4 nAChR (Rattus norvegicus, UniProt P09483+P12392); assay: cell-based; assay type: cell-based
# α7 nAChR = α7 nAChR (Rattus norvegicus, UniProt Q05941); assay: cell-based; assay type: cell-based
# α3β2[F119Q] nAChR mutant = α3β2[F119Q] nAChR mutant (Rattus norvegicus, UniProt P04757+P12390, F143Q); assay type: cell-based
# Sequence of α3β2[F119Q] nAChR mutant (P04757 26-499 limits assumed, stated change not applied): as the sequence (P04757 26-499 limits assumed, stated change not applied) above
# Sequence of α3β2[F119Q] nAChR mutant (P12390 25-500 F143Q limits assumed, stated change not applied): as the sequence (P12390 25-500 T83K limits assumed, stated change not applied) above, with K59T, F119Q counted along it
# α3β2[Q34A] nAChR mutant = α3β2[Q34A] nAChR mutant (Rattus norvegicus, UniProt P04757+P12390, Q58A); assay type: cell-based
# α4β2 nAChR = α4β2 nAChR (Rattus norvegicus, UniProt P09483+P12390); assay: cell-based
# α6/α3β2β3 nAChR = α6/α3β2β3 nAChR (Rattus norvegicus, UniProt P04757+P12390+P43143); assay: cell-based; assay type: cell-based
# α3β2[V111I] nAChR mutant = α3β2[V111I] nAChR mutant (Rattus norvegicus, UniProt P04757+P12390, V135I); assay type: cell-based
# Sequence of α3β2[V111I] nAChR mutant (P04757 26-499 limits assumed, stated change not applied): as the sequence (P04757 26-499 limits assumed, stated change not applied) above
# Sequence of α3β2[V111I] nAChR mutant (P12390 25-500 V135I limits assumed, stated change not applied): as the sequence (P12390 25-500 T83K limits assumed, stated change not applied) above, with K59T, V111I counted along it
# human α3β2 nAChR [3] = target: human α3β2 nAChR (Homo sapiens, UniProt P17787+P32297); assay type: cell-based
# α3β2 nAChR = α3β2 nAChR (Rattus norvegicus, UniProt P04757+P12390); assay: cell-based; assay type: cell-based
# α3β4 nAChR = α3β4 nAChR (Rattus norvegicus, UniProt P04757+P12392); assay: cell-based; assay type: cell-based
# α3β2[K79A] nAChR mutant = α3β2[K79A] nAChR mutant (Rattus norvegicus, UniProt P04757+P12390, K103A); assay type: cell-based
# α3β2[T59L] nAChR mutant = α3β2[T59L] nAChR mutant (Rattus norvegicus, UniProt P04757+P12390, T83L); assay type: cell-based
# Sequence of α3β2[T59L] nAChR mutant (P04757 26-499 limits assumed, stated change not applied): as the sequence (P04757 26-499 limits assumed, stated change not applied) above
# Sequence of α3β2[T59L] nAChR mutant (P12390 25-500 T83L limits assumed, stated change not applied): as the sequence (P12390 25-500 T83K limits assumed, stated change not applied) above, with K59L counted along it
# α9α10 nAChR = α9α10 nAChR (Rattus norvegicus, UniProt P43144+Q9JLB5); assay: cell-based
# [4] = target: α7 acetylcholine receptor (Homo sapiens, UniProt P36544); conditions: read-out: half-blocking dose IC50; cited from earlier work
# [5] = target: α3β4 acetylcholine receptor; conditions: read-out: half-blocking dose IC50; cited from earlier work
# [6] = target: α3β2 acetylcholine receptor (Homo sapiens, UniProt P17787+P32297); conditions: read-out: half-blocking dose IC50; cited from earlier work
# [7] = target: α4β4 acetylcholine receptor (Homo sapiens, UniProt P30926+P43681); conditions: read-out: half-blocking dose IC50; cited from earlier work
# [8] = target: α6/α3β2β3 acetylcholine receptor; conditions: read-out: half-blocking dose IC50; cited from earlier work
# [9] = target: α6/α3β4 acetylcholine receptor; conditions: read-out: half-blocking dose IC50; cited from earlier work
# [10] = target: α2β4 acetylcholine receptor (Homo sapiens, UniProt P30926+Q15822); conditions: read-out: half-blocking dose IC50; cited from earlier work
# [11] = target: α9α10 acetylcholine receptor (Homo sapiens, UniProt Q9GZZ6+Q9UGM1); conditions: read-out: half-blocking dose IC50; cited from earlier work
# α7/5HT3 chimera = conditions: read-out: half-blocking dose IC50; cited from earlier work
# [12] = target: α4β2 acetylcholine receptor (Homo sapiens, UniProt P17787+P43681); conditions: read-out: half-blocking dose IC50; cited from earlier work
# rat α4β4 nAChR = rat α4β4 nAChR (rat, UniProt P09483); assay: cell-based or functional assay
# human α3β2 nAChR [13] = target: human α3β2 nAChR (human, UniProt P32297); assay: cell-based or functional assay
# rat α2β2 nAChR = rat α2β2 nAChR (rat, UniProt P12389); assay: cell-based or functional assay
# rat α4β2 nAChR = rat α4β2 nAChR (rat, UniProt P09483); assay: cell-based or functional assay
# rat α2β4 nAChR = rat α2β4 nAChR (rat, UniProt P12389); assay: cell-based or functional assay
# rat α9α10 nAChR = rat α9α10 nAChR (rat, UniProt P43144); assay: cell-based or functional assay
# rat α7 nAChR = rat α7 nAChR (rat, UniProt Q05941); assay: cell-based or functional assay
# [14] = read-out: IC50 (half-blocking dose)
molecule,measurement,setting,value
CC[C@H](C)[C@@H]1NC(=O)[C@H](CCC(=O)O)NC(=O)[C@@H]2CCCN2C(=O)[C@H](Cc2cnc[nH]2)NC(=O)[C@H](CC(=O)O)NC(=O)[C@H](C(C)C)NC(=O)[C@H](CC(N)=O)NC(=O)[C@@H]2CSSC[C@H](NC(=O)CN)C(=O)N[C@@H](CSSC[C@@H](C(N)=O)NC1=O)C(=O)N[C@@H](CO)C(=O)N[C@@H](Cc1cnc[nH]1)C(=O)N1CCC[C@H]1C(=O)N[C@@H](C)C(=O)N2 [LvIA/LvD21],Elution time after blocking,α3β2[T59K] nAChR mutant,20 min
same,Hill slope of dose-response curves,α3β2[T59K] nAChR mutant,0.80(0.47-1.13)
same,blocking activity times higher than that to wild type α3β2 nAChR,α3β2[T59K] nAChR mutant,15 times
same,current blocked,α3β2[T59K] nAChR mutant,blocked all current
same,Hill slope of dose-response curve,α6/α3β4 nAChR,0.94 (0.66-1.22)
same,analgesic effect on neuralgia,[1],potent analgesic effects
same,"analgesic effect times higher than that of morphine, same weight and dose",[1],823-1176 times
same,"average analgesic value (Mechanical Threshold, % of basal)",[1],160%
same,mechanical threshold after withdrawal,[1],significantly higher than that of morphine group
same,analgesic value,[1]; ip,far higher than morphine
same,"analgesic value in some cases (Mechanical Threshold, % of basal)",[1]; ip,up to 200%
same,"average analgesic value (Mechanical Threshold, % of basal)",[1]; ip,up to 200%
same,Elution time after blocking,α3β2[T59I] nAChR mutant,2 min
same,Hill slope of dose-response curves,α3β2[T59I] nAChR mutant,1.15(0.43-1.86)
same,"analgesic effect times higher than that of morphine, same weight and dosage",[2],764-882 times
same,pain threshold,[2],30 s
same,pain threshold in comparison with the pain threshold of morphine,[2],1.3-1.5 times and 1.3 times
same,Hill slope of dose-response curve,human α6/α3β2β3 nAChR,0.85 (0.55-1.15)
same,IC50,human α6/α3β2β3 nAChR,5340 nM
same,IC50,α2β2 nAChR,> 10000 nM
same,blocking of ACh-gated current,α2β2 nAChR,totally does not block; also recorded: no blocking activity
same,IC50,α2β2 nAChR; [14],> 10000 nM
same,IC50,α4β4 nAChR,> 10000 nM
same,IC50,α4β4 nAChR; [14],> 10000 nM
same,Hill slope of dose-response curve,α7 nAChR,0.65 (0.43-0.87)
same,Elution time after blocking,α3β2[F119Q] nAChR mutant,12 min and 10 to 12 min
same,Hill slope of dose-response curves,α3β2[F119Q] nAChR mutant,1.12(0.79-1.44)
same,blocking activity times higher than that to wild type α3β2 nAChR,α3β2[F119Q] nAChR mutant,25 times
same,current blocked,α3β2[F119Q] nAChR mutant,blocked all current
same,Elution time after blocking,α3β2[Q34A] nAChR mutant,2 to 3 min
same,Hill slope of dose-response curves,α3β2[Q34A] nAChR mutant,0.90(0.22-1.58)
same,IC50,α4β2 nAChR,> 10000 nM
same,IC50,α4β2 nAChR; [14],> 10000 nM
same,Hill slope of dose-response curve,α6/α3β2β3 nAChR,0.60(0.48-0.72)
same,Elution time after blocking,α3β2[V111I] nAChR mutant,1 min
same,Hill slope of dose-response curves,α3β2[V111I] nAChR mutant,1.31(0.66-1.96)
same,current blocked,α3β2[V111I] nAChR mutant,does not block at all; also recorded: totally did not block
same,Hill slope of dose-response curve,human α3β2 nAChR [3],0.81 (0.44-1.18)
same,blocking activity to α3β2 times higher than to α6/α3β2β3,human α3β2 nAChR [3],~305 times
same,% of recovered current within elution time,α3β2 nAChR,100%
same,Hill slope of dose-response curve,α3β2 nAChR,1.17 (0.88-1.46)
same,Hill slope of dose-response curves,α3β2 nAChR,1.17(0.79-1.54)
same,blocking activity to α3β2 times higher than to α6/α3β2β3,α3β2 nAChR,~100 times
same,blocking of ACh-gated current,α3β2 nAChR,specifically blocks; also recorded: completely blocks
same,current blocked,α3β2 nAChR,about 50%
same,time to complete elution after block,α3β2 nAChR,≤ 2 min
same,Hill slope of dose-response curve,α3β4 nAChR,1.14 (0.72-1.55)
same,Elution time after blocking,α3β2[K79A] nAChR mutant,1 min
same,Hill slope of dose-response curves,α3β2[K79A] nAChR mutant,0.86(0.43-1.30)
same,Elution time after blocking,α3β2[T59L] nAChR mutant,5 to 8 min
same,Hill slope of dose-response curves,α3β2[T59L] nAChR mutant,1.07(0.77-1.37)
same,blocking activity times higher than that to wild type α3β2 nAChR,α3β2[T59L] nAChR mutant,7 times
same,IC50,α9α10 nAChR,> 10000 nM
same,IC50,α9α10 nAChR; [14],> 10000 nM
GCCSTPPCAVLY---C* [BuIA],IC50,[4],272 nM
same,IC50,[5],27.7 nM
same,IC50,[6],5.72 nM
same,IC50,[7],69.9 nM
same,IC50,[8],0.26 to 0.46 nM
same,IC50,[9],1.54 to 2.1 nM
same,IC50,[10],121 nM
GCCSDPRCAWR----C* [ImI],IC50,[4],595 nM
same,IC50,[5],3390 nM
same,IC50,[6],41 nM
same,IC50,[11],2000 nM
same,IC50,α7/5HT3 chimera,217 nM
GCCSHPACAGNNQHIC* [GIC],IC50,[5],755 nM
same,IC50,[6],1.1 nM
same,IC50,[12],309 nM
GCCSHPACNVDHPEIC (not fully specified; ends and bridges not checked) [α-conotoxin LvIA/LvD21],IC50 (half-blocking dose) on ACh-gated current,rat α4β4 nAChR,> 10000 nM
same,IC50 (half-blocking dose) on ACh-gated current,human α3β2 nAChR [13],17.5 nM
same,IC50 (half-blocking dose) on ACh-gated current,rat α2β2 nAChR,> 10000 nM
same,IC50 (half-blocking dose) on ACh-gated current,rat α4β2 nAChR,> 10000 nM
same,IC50 (half-blocking dose) on ACh-gated current,rat α2β4 nAChR,15500 nM
same,IC50 (half-blocking dose) on ACh-gated current,rat α9α10 nAChR,> 10000 nM
same,IC50 (half-blocking dose) on ACh-gated current,rat α7 nAChR,3000 nM
